In publication PMC6934184, “Selective DNA-PKcs inhibition extends the therapeutic index of localized radiotherapy and chemotherapy” (The Journal of Clinical Investigation, 2019):

Molecular target: T1, GRK5 (Homo sapiens, UniProt P34947)
T1 construct: purchased Thermo Fisher Scientific (Life Technologies) SelectScreen
Assay: SelectScreen Z'LYTE
Assay type: biochemical
Summary of the method: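 Compound tested in SelectScreen activity assays, Z'LYTE for CSF1R, CDK1/cyclin B and MAP2K6 and Adapta for CAMK1. ATP for CAMK1 was listed as 10, and Km app was used for CSF1R. Results are expressed in percent.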

T1 sequence (P34947 whole entry): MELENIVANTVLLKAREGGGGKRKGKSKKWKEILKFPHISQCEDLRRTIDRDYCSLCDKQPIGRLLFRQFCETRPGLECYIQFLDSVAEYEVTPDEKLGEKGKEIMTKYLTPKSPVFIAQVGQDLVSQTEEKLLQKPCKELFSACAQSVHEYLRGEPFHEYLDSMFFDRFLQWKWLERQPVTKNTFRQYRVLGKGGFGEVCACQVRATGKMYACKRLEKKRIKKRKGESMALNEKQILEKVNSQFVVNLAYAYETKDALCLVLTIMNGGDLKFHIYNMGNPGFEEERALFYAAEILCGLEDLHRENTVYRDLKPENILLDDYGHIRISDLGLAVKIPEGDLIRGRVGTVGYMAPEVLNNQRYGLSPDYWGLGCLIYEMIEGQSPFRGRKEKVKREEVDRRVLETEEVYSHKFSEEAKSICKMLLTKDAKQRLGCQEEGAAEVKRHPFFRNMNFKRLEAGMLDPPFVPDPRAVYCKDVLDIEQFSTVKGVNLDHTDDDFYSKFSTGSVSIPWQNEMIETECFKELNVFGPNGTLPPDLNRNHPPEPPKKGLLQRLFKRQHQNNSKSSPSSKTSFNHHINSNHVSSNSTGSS

Compound: CN(C(=O)CN1CCOCC1)c1ccc2sc3c(-c4cccc5c(=O)cc(N6CC7CCC(C6)O7)oc45)cccc3c2c1 [NU5455]
- inhibition at 1 µM: -3.2%
